Columns and labels:
[1] = tested on: Mycobacterium tuberculosis; conditions: in vivo; cited from earlier work
HeLa cells [2] = assay type: cell-based
HeLa cells [3] = assay type: cell-based; remark: listed apart in the source

| Compound | effective in preventing the disease [1] | concentration of peptide at which internalization of the beads was achieved (as low as) (HeLa cells [2]) [nM] | concentration sufficient to permit uptake of the spheres by Hela cells (HeLa cells [2]) | entry of coated beads into HeLa cells compared with whole Mcep (SEQ. ID. No. 4) (HeLa cells [2]) | uptake of coated 0.3 μm latex microspheres, transmission electron microscopy (HeLa cells [2]) | blocking of uptake of Mcep-coated beads (HeLa cells [3]) |
| --- | --- | --- | --- | --- | --- | --- |
| NNC(=O)c1ccncc1 [isoniazid] | about 90% |  |  |  |  |  |
| TKRRITPKDVIDVRSVTTEINT [Inv3] |  | 25 | nanomolar concentration | as efficiently as the whole Mcep | uptake | competitively blocked |
